Source: ChEMBL document CHEMBL5260810, “Inhibition of bromodomain-containing protein 9 for the prevention of epigenetically-defined drug resistance” (Bioorg Med Chem Lett, 2017)

How the values were obtained:
[1] = target: Bromodomain-containing protein 4 (Homo sapiens, UniProt O60885); assay: Displacement of biotinylated small-molecule ligand from recombinant His-tagged BRD4 bromodomain 2 (unknown origin) measured after 10 mins by TR-FRET assay
[2] = target: Transcription initiation factor TFIID subunit 1 (Homo sapiens, UniProt P21675); assay: Displacement of biotinylated small-molecule ligand from recombinant His-tagged TAF1 bromodomain 2 (unknown origin) measured after 10 mins by TR-FRET assay
Chain of Transcription initiation factor TFIID subunit 1 (P21675 whole entry): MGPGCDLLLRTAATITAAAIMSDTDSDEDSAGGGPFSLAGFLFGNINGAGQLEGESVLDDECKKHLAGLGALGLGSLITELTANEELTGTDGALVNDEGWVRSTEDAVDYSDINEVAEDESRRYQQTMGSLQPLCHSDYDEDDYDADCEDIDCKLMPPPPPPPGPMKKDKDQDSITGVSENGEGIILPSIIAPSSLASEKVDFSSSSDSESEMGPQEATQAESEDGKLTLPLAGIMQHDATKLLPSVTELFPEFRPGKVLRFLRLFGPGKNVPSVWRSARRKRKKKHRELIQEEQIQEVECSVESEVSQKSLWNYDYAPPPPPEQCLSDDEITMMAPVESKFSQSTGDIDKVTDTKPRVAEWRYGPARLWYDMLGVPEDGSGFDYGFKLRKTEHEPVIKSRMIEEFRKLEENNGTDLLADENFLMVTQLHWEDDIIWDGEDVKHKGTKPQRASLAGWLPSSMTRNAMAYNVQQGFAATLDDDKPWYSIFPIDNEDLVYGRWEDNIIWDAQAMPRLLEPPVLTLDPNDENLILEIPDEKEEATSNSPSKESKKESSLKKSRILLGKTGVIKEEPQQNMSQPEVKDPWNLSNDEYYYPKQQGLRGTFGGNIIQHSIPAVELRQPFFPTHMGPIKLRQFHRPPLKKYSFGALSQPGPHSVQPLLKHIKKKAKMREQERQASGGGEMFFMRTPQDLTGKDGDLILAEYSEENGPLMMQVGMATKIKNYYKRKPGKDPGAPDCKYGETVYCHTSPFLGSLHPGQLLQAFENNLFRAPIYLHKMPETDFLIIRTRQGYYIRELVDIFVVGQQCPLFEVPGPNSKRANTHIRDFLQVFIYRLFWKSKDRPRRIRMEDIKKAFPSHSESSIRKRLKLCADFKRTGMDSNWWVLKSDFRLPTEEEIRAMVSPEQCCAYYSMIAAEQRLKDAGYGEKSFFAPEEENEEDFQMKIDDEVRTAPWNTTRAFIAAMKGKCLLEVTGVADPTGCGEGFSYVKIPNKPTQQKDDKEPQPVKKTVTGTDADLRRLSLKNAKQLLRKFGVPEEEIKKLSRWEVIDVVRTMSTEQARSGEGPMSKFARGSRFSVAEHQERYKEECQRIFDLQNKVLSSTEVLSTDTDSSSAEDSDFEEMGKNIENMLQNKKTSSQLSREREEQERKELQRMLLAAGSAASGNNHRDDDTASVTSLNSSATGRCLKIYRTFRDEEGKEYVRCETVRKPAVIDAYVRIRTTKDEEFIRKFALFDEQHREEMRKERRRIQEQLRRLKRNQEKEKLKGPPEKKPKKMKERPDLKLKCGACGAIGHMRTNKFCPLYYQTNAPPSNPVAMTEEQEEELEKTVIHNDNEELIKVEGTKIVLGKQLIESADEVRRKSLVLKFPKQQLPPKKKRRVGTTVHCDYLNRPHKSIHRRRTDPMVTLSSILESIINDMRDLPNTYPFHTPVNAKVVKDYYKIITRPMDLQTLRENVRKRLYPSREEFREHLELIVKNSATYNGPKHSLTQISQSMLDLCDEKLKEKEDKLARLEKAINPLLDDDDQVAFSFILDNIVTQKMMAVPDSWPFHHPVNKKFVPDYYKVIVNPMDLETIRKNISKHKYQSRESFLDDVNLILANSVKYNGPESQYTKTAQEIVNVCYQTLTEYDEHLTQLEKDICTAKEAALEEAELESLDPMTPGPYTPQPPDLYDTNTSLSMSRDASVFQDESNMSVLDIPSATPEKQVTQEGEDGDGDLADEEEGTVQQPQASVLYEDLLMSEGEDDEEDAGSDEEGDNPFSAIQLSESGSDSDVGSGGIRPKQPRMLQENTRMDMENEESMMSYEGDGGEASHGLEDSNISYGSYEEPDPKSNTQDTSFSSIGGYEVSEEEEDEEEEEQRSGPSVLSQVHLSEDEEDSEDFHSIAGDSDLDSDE

EB-3 = assay: Cytotoxicity against human EB-3 cells measured after 8 days; type: functional, cell-based; conditions: EB-3, 192 h
[3] = Cytotoxicity against human HS-Sultan cells measured after 8 days; type: functional, cell-based; conditions: 192 h
[4] = Cytotoxicity against human KMS-21BM cells measured after 8 days; type: functional, cell-based; conditions: 192 h
[5] = Cytotoxicity against human NCI-H2595 cells measured after 8 days; type: functional, cell-based; conditions: NCI-H2595, 192 h
Ramos = assay: Cytotoxicity against human Ramos cells measured after 8 days; type: functional, cell-based; conditions: 192 h
[6] = Cytotoxicity against human NCI-H2731 cells measured after 8 days; type: functional, cell-based; conditions: NCI-H2731, 192 h
NCI-H522 = assay: Cytotoxicity against human NCI-H522 cells measured after 8 days; type: functional, cell-based; conditions: NCI-H522, 192 h
RL = assay: Cytotoxicity against human RL cells measured after 8 days; type: functional, cell-based; conditions: 192 h
SU-DHL-16 = assay: Cytotoxicity against human SU-DHL-16 cells measured after 8 days; type: functional, cell-based; conditions: SU-DHL-16, 192 h
CAMA-1 = assay: Cytotoxicity against human CAMA-1 cells measured after 8 days; type: functional, cell-based; conditions: CAMA-1, 192 h
HPAC = assay: Cytotoxicity against human HPAC cells measured after 8 days; type: functional, cell-based; conditions: 192 h
YMB-1-E = assay: Cytotoxicity against human YMB-1-E cells measured after 8 days; type: functional, cell-based; conditions: 192 h
HCT-15 = assay: Cytotoxicity against human HCT-15 cells measured after 8 days; type: functional, cell-based; conditions: HCT-15, 192 h
LoVo = assay: Cytotoxicity against human LoVo cells measured after 8 days; type: functional, cell-based; conditions: 192 h
RKO = assay: Cytotoxicity against human RKO cells measured after 8 days; type: functional, cell-based; conditions: 192 h
MKN-45 = assay: Cytotoxicity against human MKN-45 cells measured after 8 days; type: functional, cell-based; conditions: MKN-45, 192 h
CAL-12T = assay: Cytotoxicity against human CAL-12T cells measured after 8 days; type: functional, cell-based; conditions: 192 h
HCC4006 = assay: Cytotoxicity against human HCC4006 cells measured after 8 days; type: functional, cell-based; conditions: HCC4006, 192 h
[7] = Cytotoxicity against human HCC4011 cells measured after 8 days; type: functional, cell-based; conditions: HCC4011, 192 h
[8] = target: Tyrosine-protein kinase ABL1 (Homo sapiens) (UniProt P00519); assay: Inhibition of Abl (unknown origin) at 1 uM relative to control
Chain of Tyrosine-protein kinase ABL1 (Homo sapiens) (P00519 whole entry): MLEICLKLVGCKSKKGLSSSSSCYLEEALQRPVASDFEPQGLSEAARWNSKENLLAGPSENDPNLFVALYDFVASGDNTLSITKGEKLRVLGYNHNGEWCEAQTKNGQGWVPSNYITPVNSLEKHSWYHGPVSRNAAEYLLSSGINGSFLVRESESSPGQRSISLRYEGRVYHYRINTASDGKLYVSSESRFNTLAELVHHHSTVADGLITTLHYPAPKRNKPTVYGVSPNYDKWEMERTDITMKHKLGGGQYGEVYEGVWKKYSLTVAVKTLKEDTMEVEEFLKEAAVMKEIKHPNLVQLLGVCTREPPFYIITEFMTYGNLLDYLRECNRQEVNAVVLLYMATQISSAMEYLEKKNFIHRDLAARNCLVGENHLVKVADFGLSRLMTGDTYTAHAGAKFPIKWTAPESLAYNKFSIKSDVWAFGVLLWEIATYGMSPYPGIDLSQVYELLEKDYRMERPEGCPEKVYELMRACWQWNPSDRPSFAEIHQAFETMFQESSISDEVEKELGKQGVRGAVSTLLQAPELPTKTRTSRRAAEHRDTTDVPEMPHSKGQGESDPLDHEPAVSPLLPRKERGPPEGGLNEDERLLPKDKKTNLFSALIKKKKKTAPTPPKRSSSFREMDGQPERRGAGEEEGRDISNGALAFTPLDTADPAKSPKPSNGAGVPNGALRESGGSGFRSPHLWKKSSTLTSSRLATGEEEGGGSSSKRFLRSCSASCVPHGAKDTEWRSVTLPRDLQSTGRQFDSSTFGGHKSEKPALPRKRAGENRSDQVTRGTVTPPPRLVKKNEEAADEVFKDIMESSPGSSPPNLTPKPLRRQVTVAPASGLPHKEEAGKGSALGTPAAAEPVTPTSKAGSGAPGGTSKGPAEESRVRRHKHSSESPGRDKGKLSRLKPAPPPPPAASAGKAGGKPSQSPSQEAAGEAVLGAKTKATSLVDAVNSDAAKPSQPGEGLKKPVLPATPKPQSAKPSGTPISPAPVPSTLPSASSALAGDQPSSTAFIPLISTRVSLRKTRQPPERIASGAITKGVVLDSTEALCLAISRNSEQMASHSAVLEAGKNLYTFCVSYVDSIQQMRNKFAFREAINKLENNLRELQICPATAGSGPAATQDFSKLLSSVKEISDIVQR

[9] = target: Cyclin-dependent kinase 5/CDK5 activator 1 (Homo sapiens) (UniProt Q00535+Q15078); assay: Inhibition of CDK5/p25 (unknown origin) at 1 uM relative to control; type: protein-complex assay
Chain of Cyclin-dependent kinase 5/CDK5 activator 1 (Homo sapiens) (Q00535 whole entry): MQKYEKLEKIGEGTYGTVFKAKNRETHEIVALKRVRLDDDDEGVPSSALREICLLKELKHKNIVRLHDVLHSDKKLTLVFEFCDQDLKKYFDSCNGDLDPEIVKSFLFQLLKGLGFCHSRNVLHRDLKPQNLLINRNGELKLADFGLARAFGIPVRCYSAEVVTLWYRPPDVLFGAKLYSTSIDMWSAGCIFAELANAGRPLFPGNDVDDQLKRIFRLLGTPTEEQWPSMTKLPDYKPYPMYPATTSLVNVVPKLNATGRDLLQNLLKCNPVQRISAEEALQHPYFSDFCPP
Chain of Cyclin-dependent kinase 5/CDK5 activator 1 (Homo sapiens) (Q15078 99-307 partner limits assumed): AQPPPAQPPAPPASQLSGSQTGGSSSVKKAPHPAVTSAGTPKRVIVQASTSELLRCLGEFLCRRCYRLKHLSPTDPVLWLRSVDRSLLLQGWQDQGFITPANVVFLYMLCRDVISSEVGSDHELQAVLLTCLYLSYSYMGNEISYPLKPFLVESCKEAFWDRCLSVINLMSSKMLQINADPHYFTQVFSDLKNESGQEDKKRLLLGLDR

[10] = target: T1, Serine/threonine-protein kinase Chk1 (Homo sapiens) (UniProt O14757); assay: Inhibition of CHK1 (unknown origin) at 1 uM relative to control
T1 sequence (whole entry): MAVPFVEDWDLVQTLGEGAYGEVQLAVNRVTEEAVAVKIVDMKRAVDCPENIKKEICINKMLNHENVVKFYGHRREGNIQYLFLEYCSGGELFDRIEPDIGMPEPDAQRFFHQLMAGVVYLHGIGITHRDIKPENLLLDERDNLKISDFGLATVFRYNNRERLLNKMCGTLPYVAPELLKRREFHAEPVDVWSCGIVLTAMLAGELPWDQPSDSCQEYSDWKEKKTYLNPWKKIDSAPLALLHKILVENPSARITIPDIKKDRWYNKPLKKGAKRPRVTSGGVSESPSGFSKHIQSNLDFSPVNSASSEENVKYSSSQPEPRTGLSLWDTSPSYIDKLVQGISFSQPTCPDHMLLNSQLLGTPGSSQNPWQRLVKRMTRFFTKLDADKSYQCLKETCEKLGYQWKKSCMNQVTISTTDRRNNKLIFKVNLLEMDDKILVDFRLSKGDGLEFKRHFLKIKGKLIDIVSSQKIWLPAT

[11] = target: T2, Adenosine receptor A1 (Homo sapiens) (UniProt P30542); assay: Displacement of [3H]-DPCPX from human recombinant adenosine A1 receptor at 10 uM after 60 mins by scintillation counting analysis relative to control
T2 sequence (whole entry): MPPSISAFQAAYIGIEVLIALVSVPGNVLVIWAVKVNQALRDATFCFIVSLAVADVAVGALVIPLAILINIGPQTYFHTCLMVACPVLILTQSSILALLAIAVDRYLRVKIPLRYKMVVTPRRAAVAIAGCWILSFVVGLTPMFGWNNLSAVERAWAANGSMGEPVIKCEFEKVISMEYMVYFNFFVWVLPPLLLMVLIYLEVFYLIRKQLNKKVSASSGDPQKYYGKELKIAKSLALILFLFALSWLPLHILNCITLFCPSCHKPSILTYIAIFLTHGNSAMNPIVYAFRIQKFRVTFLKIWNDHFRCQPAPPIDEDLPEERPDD

[12] = target: Histamine H2 receptor (Homo sapiens) (UniProt P25021); assay: Displacement of [125I]APT from human recombinant histamine H2 receptor at 10 uM after 120 mins by scintillation counting analysis relative to control
Chain of Histamine H2 receptor (Homo sapiens) (P25021 whole entry): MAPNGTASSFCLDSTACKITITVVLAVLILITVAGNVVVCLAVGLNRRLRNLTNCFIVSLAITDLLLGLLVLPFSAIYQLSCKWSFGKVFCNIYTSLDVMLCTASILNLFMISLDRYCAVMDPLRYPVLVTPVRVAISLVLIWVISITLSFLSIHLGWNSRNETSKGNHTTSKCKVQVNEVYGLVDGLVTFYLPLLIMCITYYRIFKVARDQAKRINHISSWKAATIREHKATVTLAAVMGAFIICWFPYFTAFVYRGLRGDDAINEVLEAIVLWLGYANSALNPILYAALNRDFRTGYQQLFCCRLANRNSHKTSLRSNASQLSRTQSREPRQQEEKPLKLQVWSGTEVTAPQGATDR

[13] = target: T3, Peroxisome proliferator-activated receptor gamma (Homo sapiens) (UniProt P37231); assay: Inhibition of human PPARgamma at 10 uM relative to control
T3 sequence (whole entry): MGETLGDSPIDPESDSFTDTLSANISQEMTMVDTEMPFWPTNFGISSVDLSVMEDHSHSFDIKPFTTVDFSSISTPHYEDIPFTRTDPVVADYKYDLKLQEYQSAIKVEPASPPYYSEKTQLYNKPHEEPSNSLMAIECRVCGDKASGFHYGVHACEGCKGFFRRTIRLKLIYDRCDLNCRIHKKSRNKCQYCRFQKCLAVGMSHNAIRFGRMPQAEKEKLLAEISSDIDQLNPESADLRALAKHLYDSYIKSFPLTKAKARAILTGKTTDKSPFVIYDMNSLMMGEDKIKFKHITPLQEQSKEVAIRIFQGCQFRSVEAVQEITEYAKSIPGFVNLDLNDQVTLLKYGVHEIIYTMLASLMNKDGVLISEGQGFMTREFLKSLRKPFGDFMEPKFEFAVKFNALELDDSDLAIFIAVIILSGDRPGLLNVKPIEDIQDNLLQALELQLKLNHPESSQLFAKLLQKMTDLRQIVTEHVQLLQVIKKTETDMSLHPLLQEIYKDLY

[14] = target: 5-hydroxytryptamine receptor 2B (Homo sapiens) (UniProt P41595); assay: Displacement of [125I]+/-DOI from human recombinant 5-HT2B receptor at 10 uM after 60 mins by scintillation counting analysis relative to control
Chain of 5-hydroxytryptamine receptor 2B (Homo sapiens) (P41595 whole entry): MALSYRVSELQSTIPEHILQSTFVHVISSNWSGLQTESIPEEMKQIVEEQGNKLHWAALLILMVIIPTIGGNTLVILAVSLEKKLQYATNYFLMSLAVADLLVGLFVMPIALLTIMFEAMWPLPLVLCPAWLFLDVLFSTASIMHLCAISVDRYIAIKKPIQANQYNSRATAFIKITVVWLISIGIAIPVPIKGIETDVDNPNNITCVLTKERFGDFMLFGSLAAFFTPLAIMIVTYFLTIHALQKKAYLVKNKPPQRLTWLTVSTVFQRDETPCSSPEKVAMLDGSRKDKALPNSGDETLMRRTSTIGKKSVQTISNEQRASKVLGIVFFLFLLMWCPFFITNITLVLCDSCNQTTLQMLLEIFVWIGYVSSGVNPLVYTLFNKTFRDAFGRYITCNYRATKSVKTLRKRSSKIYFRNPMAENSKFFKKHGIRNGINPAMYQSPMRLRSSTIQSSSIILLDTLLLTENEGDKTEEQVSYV

[15] = target: Sodium-dependent serotonin transporter (Homo sapiens) (UniProt P31645); assay: Displacement of [3H]-imipramine from recombinant human 5-HT transporter at 10 uM after 60 mins by scintillation counting relative to control
Chain of Sodium-dependent serotonin transporter (Homo sapiens) (P31645 whole entry, looked up): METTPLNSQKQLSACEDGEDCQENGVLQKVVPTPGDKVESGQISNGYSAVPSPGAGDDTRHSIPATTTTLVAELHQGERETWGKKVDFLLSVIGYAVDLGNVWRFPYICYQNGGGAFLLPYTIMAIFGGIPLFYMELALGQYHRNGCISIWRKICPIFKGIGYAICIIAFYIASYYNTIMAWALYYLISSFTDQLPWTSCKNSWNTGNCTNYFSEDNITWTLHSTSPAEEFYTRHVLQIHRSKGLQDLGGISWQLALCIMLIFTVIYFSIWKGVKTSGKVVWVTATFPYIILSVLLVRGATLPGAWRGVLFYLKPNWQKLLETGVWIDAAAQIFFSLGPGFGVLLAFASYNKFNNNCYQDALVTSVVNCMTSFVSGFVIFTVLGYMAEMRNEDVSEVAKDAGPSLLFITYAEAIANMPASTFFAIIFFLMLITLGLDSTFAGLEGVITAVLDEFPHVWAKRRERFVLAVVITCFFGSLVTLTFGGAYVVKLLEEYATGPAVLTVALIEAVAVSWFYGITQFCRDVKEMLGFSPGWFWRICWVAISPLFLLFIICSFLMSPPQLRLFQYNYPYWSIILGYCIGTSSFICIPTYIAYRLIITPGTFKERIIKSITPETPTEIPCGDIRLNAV

## C/C=C/Cn1cc(-c2ccc(C(C)(C)O)cc2OC)c2cc[nH]c2c1=O
[1]
  IC50: > 20 µM
[2]
  IC50: > 20 µM
EB-3
  IC50: 20 µM
[3]
  IC50: 20 µM
[4]
  IC50: 20 µM
[5]
  IC50: 20 µM
Ramos
  IC50: 20 µM
[6]
  IC50: 20 µM
NCI-H522
  IC50: 20 µM
RL
  IC50: 14.8 µM
SU-DHL-16
  IC50: 13.9 µM
CAMA-1
  IC50: 20 µM
HPAC
  IC50: 20 µM
YMB-1-E
  IC50: 20 µM
HCT-15
  IC50: 14.6 µM
LoVo
  IC50: 20 µM
RKO
  IC50: 20 µM
MKN-45
  IC50: 20 µM
CAL-12T
  IC50: 20 µM
HCC4006
  IC50: 20 µM
[7]
  IC50: 20 µM
[8]
  inhibition: 10%
[9]
  inhibition: -0.5%
[10]
  inhibition: 7%
[11]
  Activity: 8%
[12]
  Activity: 1%
[13]
  inhibition: 18%
[14]
  Activity: -2%
[15]
  Activity: 3%

## C/C=C/Cn1cc(-c2cc(OC)c(C(C)(C)O)cc2OC)c2cc(C)[nH]c2c1=O
[1]
  IC50: > 20 µM
[2]
  IC50: > 20 µM

## C/C=C/Cn1cc(-c2ccc(C(=O)N3CCOCC3)cc2)c2cc[nH]c2c1=O
[1]
  IC50: 8.3 µM
[2]
  IC50: 1.5 µM
EB-3
  IC50: 20 µM
[3]
  IC50: 20 µM
[4]
  IC50: 14.8 µM
[5]
  IC50: 20 µM
Ramos
  IC50: 20 µM
[6]
  IC50: 20 µM
NCI-H522
  IC50: 20 µM
RL
  IC50: 16.6 µM
SU-DHL-16
  IC50: 10.3 µM
CAMA-1
  IC50: 20 µM
HPAC
  IC50: 20 µM
YMB-1-E
  IC50: 20 µM
HCT-15
  IC50: 20 µM
LoVo
  IC50: 20 µM
RKO
  IC50: 20 µM
MKN-45
  IC50: 20 µM
CAL-12T
  IC50: 20 µM
HCC4006
  IC50: 20 µM
[7]
  IC50: 20 µM
[8]
  inhibition: -4.2%
[9]
  inhibition: -1.5%
[10]
  inhibition: 3.4%
[11]
  Activity: 10%
[12]
  Activity: 6%
[13]
  inhibition: 49%
[14]
  Activity: 22%
[15]
  Activity: 3%

## C/C=C/Cn1cc(-c2cc(OC)c(C(=O)N3CCOCC3)cc2OC)c2cc(C)[nH]c2c1=O
[1]
  IC50: > 20 µM
[2]
  IC50: > 20 µM
EB-3
  IC50: 2 µM
[3]
  IC50: 2 µM
[4]
  IC50: 2 µM
[5]
  IC50: 2 µM
Ramos
  IC50: 2 µM
[6]
  IC50: 2 µM
NCI-H522
  IC50: 2 µM
RL
  IC50: 2 µM
SU-DHL-16
  IC50: 2 µM
CAMA-1
  IC50: 2 µM
HPAC
  IC50: 2 µM
YMB-1-E
  IC50: 2 µM
HCT-15
  IC50: 2 µM
LoVo
  IC50: 2 µM
RKO
  IC50: 2 µM
MKN-45
  IC50: 2 µM
CAL-12T
  IC50: 2 µM
HCC4006
  IC50: 2 µM
[7]
  IC50: 2 µM
[8]
  inhibition: 11%
[9]
  inhibition: 0%
[10]
  inhibition: -7.5%
[11]
  Activity: -4%
[12]
  Activity: -5%
[13]
  inhibition: 9%
[14]
  Activity: 6%
[15]
  Activity: 4%
